Measurements as given in patent publication US20200148617A1, “GEMCABENE, PHARMACEUTICALLY ACCEPTABLE SALTS THEREOF, COMPOSITIONS THEREOF AND METHODS OF USE THEREFOR” (GEMPHIRE THERAPEUTICS INC., priority 2017, published 2020).

Columns and labels:
[1] = Particle size distribution by laser light diffraction (Malvern Mastersizer 2000, Fraunhofer); format: physicochemical; conditions: cumulative volume
Method: In some embodiments, the particle size distribution and the PSD90 of a compound of the invention is determined by the laser light diffraction particle size distribution analysis. The particle size distribution is determined in accordance with the Fraunhofer light diffraction method. In this method, a coherent laser beam passes through the sample and the resulting diffraction pattern is focused on a multi-element detector. Since the diffraction pattern depends, among other parameters, on particle size, the particle size distribution can be calculated based on the measured diffraction pattern of the sample. The method is described in more detail in USP38-NF33, <429> Light Diffraction Measurement of Particle Size.
The particle size distribution was determined in accordance with the Fraunhofer light diffraction method. A coherent laser beam was passed through the sample and the resulting diffraction pattern was focused on a multi-element detector. Because the diffraction pattern depends, among other parameters, on particle size, the particle size distribution (PSD) was calculated based on the measured diffraction patter of the sample.
Stock dispersion solution was prepared by adding a few drops of the dispersing aid (e.g., 1% w/w solution of a detergent in white spirit such as Span 80, Fluka (85548-250 ml)) to an appropriate amount of substance and mixed carefully. The dispersion was then slowly diluted to a final volume of about 10 ml while vortexing. The suspension cell of the instrument (Malvern Mastersizer 2000 equipped with Hydro 2000S sample dispersion unit) was filled with dispersion medium and a background measurement was taken. […] The cumulative volume distribution was determined in accordance with the instrument's instruction manual.
The PSD10, PSD50, and PSD90 values were determined from the cumulative volume distribution of each measurement. Values smaller than 10 μm were reported to one decimal place. Results larger than 10 μm were reported as single digit values. Sample parameters used in analysis are shown below: […]

[2] = Effect of steady-state gemcabene 600 mg on single-dose pharmacokinetics of ON 1/35 (ethinyl estradiol/norethindrone) in healthy female subjects; format: in vivo, human; conditions: for exposure in presence of gemcabene calcium salt hydrate Crystal Form 1 (geometric LS mean ratio): single dose ON 1/35 with gemcabene 600 mg daily at steady state, mild drug-drug interaction
Method: An open-label, two-sequence, cross-over study to assess the steady-state effects of gemcabene on the single-dose pharmacokinetics (PK) of oral contraceptive tablets in healthy female subjects was conducted with 300 mg tablets containing gemcabene calcium salt hydrate Crystal Form 1 having PSD90 of 52 μm (Tablet F).
The population for this study was generally healthy, adult female subjects of childbearing potential (≥18 to ≤35 years of age). This population supports the overall objective of the study to evaluate the effect of 600 mg of gemcabene calcium salt hydrate Crystal Form 1 having PSD90 of 52 μm at steady-state on the PK of a single dose of ON 1/35 (Ortho Novum 1/35; combined ethinyl estradiol/norethindrone oral contraceptive). The primary objective of this study was to assess the effect of daily 600 mg of gemcabene calcium salt hydrate Crystal Form 1 having PSD90 of 52 μm at steady-state on the pharmacokinetics (PK) of ON 1/35. The secondary objectives of this study were to assess the safety and tolerability of daily gemcabene 600 mg in combination with a single-dose ON 1/35 and to assess the steady-state PK of 600 mg of gemcabene calcium salt hydrate Crystal Form 1 having PSD90 of 52 μm (Tablet F×2).
Gemcabene calcium salt hydrate Crystal Form 1 having PSD90 of 52 μm was administered orally as a single dose of 600 mg, given as two 300 mg tablets (300-mg Tablet F×2) (with 240 mL of water). Gemcabene calcium salt hydrate Crystal Form 1 having PSD90 of 52 μm (600 mg) was administered at the same time each day.
Non-compartmental PK single-dose parameters were obtained, including Cmax, time to the maximum observed plasma concentration (Tmax), AUC from time 0 to time of last detectable concentration (AUClast) and when possible, AUC extrapolated to infinite time (AUC∞), percent of AUC∞ obtained from forward extrapolation (AUCextrap %), apparent terminal rate constant (λz), apparent terminal half-life ([…]), apparent total body clearance (CL/F), and apparent volume of distribution of the terminal phase (Vz/F) for ethinyl estradiol and norethindrone.

[3] = test system: hepatic mRNA expression in STAM™ mice; assay: Murine STAM model of NASH-HCC: hepatic gene expression by quantitative RT-PCR; format: in vivo, mouse
Method: A study was performed to evaluate the efficacy of gemcabene calcium salt hydrate Crystal Form 1 having a PSD90 of 52 μm as measured by laser light diffraction, in treating non-alcoholic steatosis hepatitis (NASH) in the murine STAM™ model of NASH-HCC.
Briefly, two-day old neonatal C57BL/6 male mice were administered low-dose streptozotocin (STZ), and were subsequently fed a HFC diet from 4 weeks of age. In this model, the mice typically develop liver steatosis and diabetes, reaching steatohepatitis within 3 weeks, followed by cirrhosis within 8 weeks, and carcinoma within 16 weeks. In the current study, mice were administered daily oral gemcabene calcium salt hydrate Crystal Form 1 starting at week 6 of age and were sacrificed at week 9. Telmisartan (with antisteatotic, anti-inflammatory and antifibrotic effects in STAM™ mice) was used as a positive comparator. A baseline reference group was administered vehicle at day 2 of age, and from week 6 of age was vehicle-treated and chow-fed. Five STAM™ groups were streptozocin-treated at day 2 of age and fed a HFC-diet beginning with week 4 of age. These STAM™ groups were orally administered from week 6 one of the following: water-vehicle, gemcabene calcium salt hydrate Crystal Form 1 at 30, 100 and 300 mg/kg daily, or telmisartan ([…]®) 10 mg/kg daily. Telmisartan ([…]®) was purchased from Boehringer Ingelheim GmbH (Germany) and dissolved in pure water. All groups were sacrificed at week 9. Vehicle, gemcabene calcium salt hydrate Crystal Form 1, or telmisartan were administered by oral gavage once daily.
Various gene expression markers of liver metabolism were evaluated by Real-Time PCR (RT-PCR) in all mouse groups. Total RNA was extracted from liver samples using RNAiso (Takara Bio, Japan) according to the manufacturer's instructions. One μg of RNA was reverse-transcribed using a reaction mixture containing 4.4 mM MgCl2 (F. Hoffmann-La Roche, Switzerland), 40 U RNase inhibitor (Toyobo, Japan), 0.5 mM dNTP (Promega, USA), 6.28 μM random hexamer (Promega), 5× first strand buffer (Promega), 10 mM dithiothreitol (Invitrogen, USA) and 200 U MMLV-RT (Invitrogen) in a final volume of 20 μL. The reaction was carried out for 1 hour at 37° C., followed by 5 minutes at 99° C. Real-time PCR was performed using real-time PCR DICE and SYBR premix Taq (Takara Bio). To calculate the relative mRNA expression level, the expression of each gene was normalized to that of reference gene 36B4 (gene symbol: Rplp0). Information of PCR-primer sets is described in Tables 20A-20C. Statistical analyses were performed using the Bonferroni Multiple Comparison Test on GraphPad Prism 6 (GraphPad Software Inc., USA). P values <0.05 were considered statistically significant. Results are expressed as mean±SD.
In order to calculate the relative mRNA expression level, the expression of each gene was normalized to that of the reference gene 36B4 (gene symbol: Rplp0). The gene expression levels were measured by quantitative RT-PCR. Results were normalized with values for the vehicle-treated normal group. […] Gemcabene calcium salt hydrate Crystal Form 1 (PSD90=52 μm) modulated the mRNA expression of many hepatic genes that play a significant role in the liver homeostasis and injury.

[4] = Treatment B = single dose ON 1/35 and daily gemcabene 600 mg, Treatment A = single dose ON 1/35 alone, healthy female subjects
[5] = 10 mg/kg, normalized to Vehicle in Normal, mean ± SD, n = 7

| SMILES | D10 (PSD10) [1] | D50 (PSD50) [1] | D90 (PSD90) [1] | other results |
| --- | --- | --- | --- | --- |
| CC(C)(CCCCOCCCCC(C)(C)C(=O)[O-])C(=O)[O-].[Ca+2] [Sample 5] | 7.8 μm | 101 μm | 431 μm | – |
| CC(C)(CCCCOCCCCC(C)(C)C(=O)[O-])C(=O)[O-].[Ca+2] [Sample 10] | – | – | 55 μm | – |
| CC(C)(CCCCOCCCCC(C)(C)C(=O)[O-])C(=O)[O-].[Ca+2] [Sample 4] | 5.8 μm | 22 μm | 52 μm | – |
| CC(C)(CCCCOCCCCC(C)(C)C(=O)[O-])C(=O)[O-].[Ca+2] [Sample 8] | 8.2 μm | 24 μm | 48 μm | – |
| CC(C)(CCCCOCCCCC(C)(C)C(=O)[O-])C(=O)[O-].[Ca+2] [Sample 7] | 5.4 μm | 20 μm | 62 μm | – |
| CC(C)(CCCCOCCCCC(C)(C)C(=O)[O-])C(=O)[O-].[Ca+2] [Sample 6] | 7.8 μm | 25 μm | 52 μm | – |
| CC(C)(CCCCOCCCCC(C)(C)C(=O)[O-])C(=O)[O-].[Ca+2] [Sample 2] | 4.8 μm | 22.9 μm | – | – |
| CC(C)(CCCCOCCCCC(C)(C)C(=O)[O-])C(=O)[O-].[Ca+2] [Sample 11] | – | – | 47 μm | – |
| CC(C)(CCCCOCCCCC(C)(C)C(=O)[O-])C(=O)[O-].[Ca+2] [Sample 1] | 6.3 μm | 50.4 μm | – | – |
| C#C[C@]1(O)CC[C@H]2[C@@H]3CCc4cc(O)ccc4[C@H]3CC[C@@]21C [ethinyl estradiol] | – | – | – | AUC0-12 (h*pg/mL): Ratio Geom. LS Mean (Treatment B/Treatment A) [2, 4]: 78.54%; AUClast (h*pg/mL): Ratio Geom. LS Mean (Treatment B/Treatment A) [2, 4]: 86.70%; Cmax (pg/mL): Ratio Geom. LS Mean (Treatment B/Treatment A) [2, 4]: 70.50%; exposure in presence of gemcabene calcium salt hydrate Crystal Form 1 (geometric LS mean ratio) [2]: slightly decreased |
| CCCc1nc2c(C)cc(-c3nc4ccccc4n3C)cc2n1Cc1ccc(-c2ccccc2C(=O)O)cc1 [telmisartan, reference compound] | – | – | – | ANGPTL3 gene expression (hepatic mRNA, RT-PCR) [3, 5]: 0.7 ± 0.2; ANGPTL4 gene expression (hepatic mRNA, RT-PCR) [3, 5]: 2.1 ± 0.3; CCR5 gene expression (hepatic mRNA, RT-PCR) [3, 5]: 1.5 ± 0.3; CXCL1/KC gene expression (hepatic mRNA, RT-PCR) [3, 5]: 0.6 ± 0.3; LPL gene expression (hepatic mRNA, RT-PCR) [3, 5]: 2.4 ± 0.5; Sulf-2 gene expression (hepatic mRNA, RT-PCR) [3, 5]: 3.9 ± 0.9; CRP mRNA levels ([3]; telmisartan 10 mg/kg, vs vehicle-treated STAM group): No significant differences |
| CC(C)(CCCCOCCCCC(C)(C)C(=O)[O-])C(=O)[O-].[Ca+2] [Sample 9] | 17 μm | 386 μm | 996 μm | – |
| C#C[C@]1(O)CC[C@H]2[C@@H]3CCC4=CC(=O)CC[C@@H]4[C@H]3CC[C@@]21C [norethindrone] | – | – | – | AUCinf (h*pg/mL): Ratio Geom. LS Mean (Treatment B/Treatment A) [2, 4]: 86.33%; AUClast (h*pg/mL): Ratio Geom. LS Mean (Treatment B/Treatment A) [2, 4]: 85.94%; Cmax (pg/mL): Ratio Geom. LS Mean (Treatment B/Treatment A) [2, 4]: 90.56%; exposure in presence of gemcabene calcium salt hydrate Crystal Form 1 (geometric LS mean ratio) [2]: slightly decreased |
| CC(C)(CCCCOCCCCC(C)(C)C(=O)[O-])C(=O)[O-].[Ca+2] [Sample 3] | 5.3 μm | 32.2 μm | – | – |
